The conditions of series [1]: amine pH-buffers with low pKa values; cited from earlier work.
Series [2] is described as follows: Hygroscopicity of crystalline salt in air. The class given is physicochemical. The note with it: crystalline substance, absorbs moisture from the air. How it is done:
380.5 g Purified N-decylpyrrolidine (1.8 mole, fw=211.39) is added to 720 mL stirring acetonitrile in a 2 L, 4-neck round-bottom flask that is equipped with a heating mantle, mechanical stirrer, 500 mL addition funnel, reflux condensor and teflon-coated thermocouple. The reaction is carried out under a nitrogen atmosphere with a slow N2 purge. The stirring mixture is heated to 50° C., and 289.1 g freshly distilled 4-fluorobenzyl chloride (2.0 mole, fw=144.58) is added in a dropwise fashion over a period of about 60 minutes. The reaction mixture is then heated to about 80° C. for 8-12 hours and periodically monitored by HPLC (Method 10a) in order to ensure that the starting amine is entirely consumed. The reaction mixture is cooled to room temperature, filtered through sintered-glass and placed on a rotary evaporator to remove the solvent (acetonitrile). 1.0 L Methyl t-butyl ether (MTBE) is added portionwise with mechanical stirring to the sticky orange-yellow reaction residue. Once this mixture is fully suspended in the solvent, it is transferred to a clean 4 L Erlenmeyer flask, and an additional amount of MTBE (1.9 L) is slowly added with stirring. […] A sharp melting point in a glass capillary is measured at 137-138° C. when measured between 90-140° C. at the heating rate of 1.0° C./minute. […]

A further series is described as follows: Solubility in water. As to conditions: pure water.
A short description of series [3]: Partitioning in two-phase diethyl ether-water extraction. The format is physicochemical. How it is done:
This is a modification of Method A based on the partitioning behavior in a two-phase diethyl ether-water extraction. […] 53.4 g Purified and recrystallized N-(4-fluorobenzyl)-N-decylpyrrolidinium chloride (150 mmole, fw=355.97) is placed in a 250 mL separatory funnel followed by 53.4 g degassed, deionized water. The flask is shaken until a clear, viscous solution is formed (˜1.5 M solution). 25.6 g Trifluoroacetic (225 mmole, fw=114.02) is added to the mixture which is vigorously mixed. Immediately two phases form with the product in the lower layer. 110 mL peroxide-free diether ether is added to the separatory funnel and the mixture is vigorously mixed again. After 2 hours, the phases fully separate with the product in the upper ether phase. The lower phase is discarded and the upper is retained. 55 mL 1% trifluoroacetic acid in distilled water is added, the mixture is vigorously mixed and phases are again allowed to separate. Again, the upper phase is retained, dried over anhydrous magnesium sulfate, filtered and placed on a rotary evaporator in order to remove the ether along with residual HCl, trifluoroacetic acid and water. This procedure yields 59.2 g (91%) of a pure, clear, viscous oil (ionic liquid). This material is suitable for use as a displacer. HPLC purity of the quat cation is essentially identical to the starting material. […]

The conditions of series [4]: cited from earlier work.

Molecules are shown by their SMILES. Values after ≈ are worked out from the molar mass of the structure shown.

For `CN(C)CCN(C)C` [N,N,N′,N′-tetramethylethylene-diamine], the pKa (as a rule, the pH at which an ionisable group is half protonated) in series [1] was 5.9.
Regarding `CCCCCCCCCC[N+]1(Cc2ccc(F)cc2)CCCC1.[Cl-]` [N-(4-Fluorobenzyl)-N-decylpyrrolidinium Chloride], in series [2], the hygroscopicity entry was “very hygroscopic”. The solubility (in general, how much of the substance goes into solution per volume) in “Solubility in water” worked out at 2000 mM. Besides, in series [3], the partitioning behavior result is given as “strongly partitions into the water layer”.
For `CCCCCCCCCC[N+]1(Cc2ccc(F)cc2)CCCC1.O=C([O-])C(F)(F)F` [N-(4-Fluorobenzyl)-N-decylpyrrolidinium Trifluoroacetate], in “Solubility in water”, the solubility was around 120 mM. Moreover, the partitioning behavior entry in series [3] is reported as “strongly partitions into the ether layer”.
With `CCN1CCNCC1` [N-ethylpiperazine], the pKa in series [1] was 5.0.
Turning to `C1CCCCC1` [cyclohexane], the solubility in water in series [4] is around 0.01 mM (≈ 0.842 µg/mL).
In the case of `c1ccc2ccccc2c1` [naphthalene], the solubility in water in series [4] was 0.2 mM (≈ 25.6 µg/mL).
As to `C1CC[C@H]2CCCC[C@@H]2C1` [trans-decalin], in series [4], the solubility in water was below 0.001 mM.
